Values of other authors in article PMC12844998, “Bridging the Knowledge Gap in Harmaline’s Pharmacological Properties: A Focus on Thermodynamics and Kinetics” (Pharmaceutics, 2025).

Settings: source not stated; cited from earlier work

## CCCCCC [Hex, n-Hexane]
  logP: 3.5
